The source of these data is EPA's ToxValDB 9.5 (doi:10.2903/j.efsa.2014.3815).

The NOAEL is the highest tested level that showed no adverse finding.

The subject of data set [1] is Lepomis macrochirus. The conditions noted are these: acute; duration: 96 hours; mortality.
The test system of data set [2] is Daphnia magna. The conditions noted are these: chronic/long-term; duration: 21 days; reproduction.
Data set [3] deals with Cyprinus carpio. The conditions noted are these: acute; duration: 96 hours; mortality.
Data set [4] relates to Pleurozium sp. The note with it: chronic/long-term; duration: 120 hours; growth.
The subject of data set [5] is Landoltia sp. The note with it: acute; duration: 14 days; frond number.
In data set [6] the test system is Apis mellifera. The conditions noted are these: acute; duration: 48 hours; dermal; mortality.
The subject of data set [7] is Macromiidae. The conditions noted are these: acute; duration: 72 hours; biomass.
The test system of data set [8] is Pimephales promelas. The conditions noted are these: chronic/long-term; duration: 37 days; growth.
In data set [9] the test system is Canidae. The conditions noted are these: subchronic; duration: 90 days; oral; Dog Other; histopathology: nonneoplastic.
For data set [10], the system named is Rattus norvegicus. The conditions noted are these: for LD50: acute, mortality.
For data set [11], the system named is Oncorhynchus mykiss.
Data set [12] has as its system Oryctolagus sp. The conditions noted are these: developmental; development.
In data set [13] the test system is Tagia sp. The conditions noted are these: acute; duration: 14 days; mortality.
For data set [14], the system named is Anas platyrhynchos.
For data set [15], the system named is Poecilus cupreus. The experiment in a line: LR50; higher = less toxic. The note with it: acute; mortality.

For `COc1nc(C)nc(NC(=O)NS(=O)(=O)c2ccccc2CCC(F)(F)F)n1` [Prosulfuron], the LC50 in [1] is above 100 µg/mL; in data set [3], above 100 µg/mL; in [11] (acute, duration: 96 hours, mortality), above 160 µg/mL; in [13] it was above 1000 mg/kg. The NOEC in data set [2] worked out at 148 mg/L; in data set [4], 0.00278 mg/L; in data set [5], 0.000827 mg/L; in data set [7], 0.831 mg/L; in [8], 150 mg/L; in data set [11] (chronic/long-term, duration: 21 days, growth), 5.8 mg/L. For the same compound, the LD50 in data set [6] was above 100 µg/piece; in data set [10] (M/F), 986 mg/kg; in data set [10], above 755 mg/kg; in [14] (acute, oral, unspecified, mortality) it was 1300 mg/kg. In addition, the NOAEL in [9] came out at 6 mg/kg-day; in data set [10] (chronic) it was 12 mg/kg-day; in data set [10] (chronic, duration: 18 months, histopathology: nonneoplastic) it was 1.7 mg/kg-day; in [10] (subchronic, duration: 90 days) it was 3 mg/kg-day; in data set [12], 10 mg/kg-day. This compound gave an NOEL in [14] (reproductive) of 2.95 mg/kg-day. In [15], this compound showed an LR50 above 15 g/ha.
